Laboratory results: PubChem BioAssay (NCI)
Several values for one entry are separate records, joined by “and”; a condition that tells them apart may be missing. Equal entries are not always repeated.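 Interpolation was linear, between the two tested concentrations surrounding the appropriate level; five concentrations were tested over 48 hours in 96-well plates. GI50: concentration for 50% inhibition of growth. TGI is the concentration that stops growth completely.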 Activity calls are given as the source filed them. No stated cut-off is given here; in the data, active means GI50 below about 0.43 µM; inactive means the rest.

Key:
Assay in all cases: NCI-60 cell line screen, 48 h
U251 CNS = system: U251 CNS
CCRF-CEM leukemia = system: CCRF-CEM leukemia
MALME-3M melanoma = system: MALME-3M melanoma
XF 498 CNS = system: XF 498 CNS
NCI-H460 lung = system: NCI-H460 lung
RXF 393 renal = system: RXF 393 renal
SK-MEL-5 melanoma = system: SK-MEL-5 melanoma
NCI-H226 lung = system: NCI-H226 lung
SF-295 CNS = system: SF-295 CNS

Row | SMILES | TGI (U251 CNS) | TGI (CCRF-CEM leukemia) | TGI (MALME-3M melanoma) | TGI (XF 498 CNS) [µM] | TGI (NCI-H460 lung) | TGI (RXF 393 renal) | TGI (SK-MEL-5 melanoma) | TGI (NCI-H226 lung) | TGI (SF-295 CNS) | GI50 (U251 CNS) | GI50 (CCRF-CEM leukemia) | GI50 (MALME-3M melanoma) | GI50 (NCI-H460 lung) | GI50 (RXF 393 renal) | GI50 (SK-MEL-5 melanoma) | GI50 (NCI-H226 lung) | GI50 (SF-295 CNS) | outcome (XF 498 CNS)
1 | Cc1ccc(NC(=O)/C(C#N)=C/c2ccccc2)c(C)c1 | > 100 µM | > 100 µM | > 100 µM | > 100 | > 100 µM | > 100 µM | > 100 µM | > 100 µM | > 100 µM | – | – | – | – | – | – | – | – | –
2 | O=C(Cc1ccccc1)C(c1ccccc1)S(=O)(=O)c1ccccc1 (stereo unspecified) | > 100 µM | > 100 µM | > 100 µM | > 100 | > 100 µM | > 100 µM | > 100 µM | > 100 µM | > 100 µM | – | – | – | – | – | – | – | – | –
3 | C#CCNC(=O)NC(CCCCNC(=O)OCc1ccccc1)C(=O)OCc1ccccc1 (stereo unspecified) | > 100 µM | > 100 µM | 61 µM | 35.7 | > 100 µM | 43.1 µM | 35.1 µM | > 100 µM | > 100 µM | – | – | – | – | – | – | – | – | –
4 | O=c1[nH]c2ccccc2n1C1CCN(CCCC(c2ccc(F)cc2)c2ccc(F)cc2)CC1 | 2.9 µM and 14.1 µM | 6.76 µM and 30.3 µM | 3.42 µM and 5.09 µM | 11.6 | 3.4 µM and 12 µM | 2.44 µM and 5.8 µM | 2.74 µM and 4.8 µM | 2.97 µM and 20.3 µM | 3.02 µM and 14.5 µM | 1.49 µM and 5.24 µM | 2.3 µM | 1.71 µM | 1.75 µM and 4.26 µM | 1.17 µM and 1.93 µM | 1.42 µM and 2.13 µM | 1.51 µM and 6.66 µM | 1.5 µM | –
5 | Cc1nnc(N/N=C(/C(=O)C(C#N)c2ccc(Cl)cc2)C(C#N)c2ccc(Cl)cc2)n1N (stereo unspecified) | – | > 100 µM | 33.6 µM | 46.6 | 39.3 µM | 31.6 µM | 30.9 µM | 33.5 µM | 30.9 µM | – | – | – | – | – | – | – | – | –
6 | COc1c(CC=C(C)C)c(O)c(C(CC(C)C)c2c(O)c(CC=C(C)C)c(O)c(C(C)=O)c2O)c(O)c1C(C)=O (stereo unspecified) | 11.2 µM | 1.65 µM | 6.45 µM | 2.09 | 10.2 µM | 11.1 µM | 5.04 µM | 10.6 µM | 2.28 µM | – | – | – | – | – | – | – | – | –
7 | CC(C)(C)c1cc(C(=O)O)c2c(c1)C(=O)OC2(c1ccccc1)c1ccccc1C(=O)O (stereo unspecified) | – | > 100 µM | > 100 µM | > 100 | > 100 µM | > 100 µM | > 100 µM | > 100 µM | > 100 µM | – | – | – | – | – | > 100 µM | – | – | –
8 | C/C(=N\NC(=S)N1CCN(c2ccccn2)CC1)c1ncccn1 | 5.45 µM and 11.8 µM | 2.06 µM and 11.4 µM | 5.93 µM and 18.3 µM | 13.8 | 5.88 µM and 14 µM | 4.51 µM and 15.5 µM | 3.2 µM and 14.9 µM | 5.78 µM and 11 µM | 5.83 µM and 6.76 µM | 0.0796 µM | – | 0.55 µM | 0.0538 µM | 1.05 µM | 0.269 µM | 1.71 µM | 0.0934 µM | –
9 | O=C(CC(=O)c1ccccc1)C(=O)Nc1ccc(Cl)cc1 | > 100 µM | > 100 µM | > 100 µM | > 100 | > 55.1 µM | > 100 µM | > 100 µM | > 100 µM | > 100 µM | – | – | – | – | – | – | – | – | –
10 | COc1c(OC(C)C)cc2cc(O)c(C(=O)NC3Cc4ccc(c(Cl)n4)O[C@@H]4C=C5C#C/C(=C\C#CC6OC56C4OC4CC(C)(O)C(O)C(C)O4)C(OC4CC(O)C(N(C)C)C(C)O4)COC3=O)cc2c1OC (stereo partly specified) | > 36.3 µM and 9.98 µg/mL | > 36.3 µM and 5.33 µg/mL | > 36.3 µM and 37.5 µg/mL | – | > 36.3 µM and 7.13 µg/mL | > 36.3 µM and 1.92 µg/mL | > 36.3 µM and 10.1 µg/mL | > 36.3 µM and 37.5 µg/mL | > 36.3 µM and 6.24 µg/mL | 5.61 µM and 0.596 µg/mL | 4.34 µM and 0.0317 µg/mL | 0.533 µg/mL | 3.81 µM and 0.0528 µg/mL | 0.568 µg/mL | > 36.3 µM and 0.546 µg/mL | 2.8 µg/mL | 9.97 µM and 0.523 µg/mL | inactive
11 | CCc1ccccc1NC(=O)CC1NC(=O)CS1 (stereo unspecified) | > 100 µM | > 100 µM | > 100 µM | > 100 | > 100 µM | > 100 µM | > 100 µM | > 100 µM | > 100 µM | – | – | – | – | – | – | – | – | –
